Assay results as given in US20100292306A1, “Compositions And Methods For The Treatment Of Muscular Dystrophy” (priority 2005, published 2010).
Residues, ends and D or L forms follow the SMILES beside them. *: point of attachment. Cbz = O=C(OCc1ccccc1)*

Experiments:
mdx mice = test: Noninvasive whole body tension (WBT) measurement of forward pulling tensions; assay type: in vivo
Text: FIG. 18 presents individual “forward pulling tensions” (FPTs; upward deflections) recorded from a PDTC-treated mouse (Series 2) using the whole body tension (WBT) technique (Carlson and Makiejus, 1990). The rank order of FPTs from highest to lowest is indicated by the numbers in the figure. […] In the Series 2 experiments, WBT measurements were obtained from each of the saline-injected and PDTC-injected mice on days 0, 9, 21 and 40 of the experiment.
As a first step in examining the potential effects of PDTC treatment on WBT tension development, the slope of the decline in FPTs was evaluated for each recording session for each mouse examined in the Series 2 experiments (FIG. 19A, 19B). This measure essentially provides a “fatigue index” (FI) since the slope of the decline in FPTs is a direct measure of the average magnitude of the decline in FPT per individual pull for rank-ordered pulls number 2 through 10. If 10 individual pulls obtained during the recording session have identical magnitudes representing the highest FPT, then the FI equals 0. In contrast, a 50% reduction in FPT per pull would produce an FI equal to −0.5.
To examine the potential effect of PDTC treatment on FI in age matched adult mdx mice, a pre-treatment FU was obtained during a typical recording session from each of 10 mdx mice used in the Series 2 investigations (age 9.5 to 16 months at beginning of study). Five of the mice were subsequently treated with daily injections of vehicle (HEPES buffered Ringer's solution) and 5 of the mice were treated with daily injections of 50 mg/kg PDTC. Recordings for each of the mice were subsequently obtained on days 9, 21, and 40 of the treatment period (e.g., FIG. 19). To determine the potential effects of treatment on FI, the FIs obtained on days 9, 21, and 40 (e.g., FIG. 19) were each normalized to the pre-treatment FI for each of the 10 mice used in the study. […] A decrease in the FI indicating a reduction in the average loss of tension per pull during the course of the study would produce normalized FIs less than one, no change in FI would be associated with normalized FIs equal to 1.0, and increases in FI would produce normalized FIs greater than 1.0.
Mdx (C57 Bl10-mdx) and nondystrophic (C57Bl10-SnJ) mice were obtained from Jackson laboratories and bred under conditions approved by the Institutional Animal Care and Use Committee (IACUC). All studies were performed in accordance with the guidelines provided by the IACUC. Male and female PDTC treated mdx mice received daily intraperitoneal (ip) injections of 50 mg/kg pyrollidine dithiocarbamate (PDTC; Sigma P8765) dissolved in sterile-filtered (0.2 μm) HEPES-buffered Ringers solution (147.5 mM NaCl, 5 mM KCl, 2 mM CaCl2, 11 mM glucose, 5 mM Hepes, pH 7.35). Age- and gender-matched groups of vehicle-treated mice received corresponding injections of HEPES Ringers. See Carlson et al., 2005. The PDTC experiments were conducted on two series of mature adult mdx mice (9.5-16 month; 19-20 months) and on a series of young adult (1 month) mice. In each case, the mice in the experimental and vehicle-treated groups were matched according to age and gender with an equal number of males and females in each group. WBT tension measurements were obtained prior to initiating treatment and on multiple occasions following at least 3 weeks (20 days) of treatment.
A group of 30 day-old mdx mice were exposed to daily ip injections (30 day) of 40 mg/kg UDCA (Sigma #5127; 2 mg/ml; N=12 experimental) in an isotonic saline vehicle (1.02% NaCl, pH 8.4,) or a synthetic taurine derivative of UDCA (tauroursodeoxycholic acid, TUDCA, SpA Laboratorio Farmacologico, Cenate Sotto, Italy; 6 mg/ml; N=4 experimental) administered in a saline vehicle (NaCl 6 g/l, KCl 0.3 g/l, CaCl2 0.2 g/l, Na acetate 4 g/l, 300 mosM/l, pH 6.1).
WBT measurements were obtained as indicated in Examples 5 through 7 by placing an approximately 0.5 inch square piece of adhesive tape around the tail about 1 inch from the tip. […]

nuclear p65 activation = test: TransAM NF-κB ELISA of nuclear p65 activation in mdx costal diaphragm; assay type: in vivo, mdx mice
Procedure: Cytosolic and nuclear fractions were obtained from isolated costal diaphragm using techniques that were slightly modified from Kumar and Boriek (2003). The muscles were removed from vehicle and drug-treated euthanized mdx mice at the end of the treatment period, and were flash-frozen and stored at −80° C. for a period of 1 to 4 weeks. The muscles were then thawed and weighed before being homogenized on ice using a mortar and pestle in low salt lysis (LSL) buffer (1 mg muscle wet weight/18 μl solution; in mM: 10 HEPES, 10 KCl, 1.5 MgCl2, 0.1 EDTA, 0.1 EGTA, 1 dithiothreitol (DTT), 0.5 phenylmethylsulfonylfluoride (PMSF); 0.5 mg/ml benzamidine, 4.0 μl/ml protease inhibitor cocktail Sigma #8340 (PIC) to produce the following final concentrations—2.1 μg/ml leupeptin, 3.85 μg/ml aprotinin, 0.416 mM AEBSF (Sigma A8456), 16 μM bestatin, 6 μM pepstatin A, 5.6 μM E64; pH 7.9). To lyse the cells, the ground tissue was then subjected to 2 freeze-thaw cycles (5 min freeze on dry ice followed by thawing at room temperature), and was subsequently vortexed and centrifuged (13,000 rpm, 15 s). The supernatant cytosolic extract was immediately frozen (−80° C.) for subsequent analyses as needed, while the nuclear pellet was washed in 50 μl LSL (2 times) before being re-suspended on ice in a high salt nuclear extraction buffer (in mM: 20 HEPES, 420 NaCl, 1 EDTA, 1 EGTA, 1 DTT, 0.5 PMSF; 25% glycerol, 0.5 mg/ml benzamidine, 4.0 μl/ml PIC; pH 7.9) at a ratio of 4 μl of solution per mg muscle wet weight. Preparations were incubated on ice for 30 min and vortexed for 10 s every 5 min before being centrifuged (13,000 rpm, 6 min) at 4° C. The supernatant nuclear extract was then removed and frozen (−80° C.) for subsequent analyses. Potential contamination of nuclear extracts with cytoplasmic proteins was less than 5%. Protein determinations for each fraction were obtained using the Bradford assay.
The Trans-Am assay (Active Motif; Carlsbad, Calif.) was used to determine nuclear NF-κB activation in nuclear fractions which were applied to the 96 well ELISA plates at 2-20 μg protein. The p65 primary antibody (catalogue number 40096) was used to detect p65 bound to oligonucleotide in vehicle and drug-treated preparations in accordance with kit instructions. A nuclear extract from Jurkat cells was routinely run as a positive control in association with each set of control and experimental samples.
Horizontal dashed lines indicate average levels observed in nondystrophic, vehicle, and UDCA treated preparations as indicated. In each case, percent recovery is determined by dividing the mean improvement observed in the UDCA treated preparation (UDCA-vehicle) from the deficit observed in the vehicle-treated preparation (nondystrophic-vehicle mdx). Mdx mice were treated for 30 days beginning at 1 month of age. Horizontal dashed lines in (A) and (B) representing nondystrophic values were obtained from a cohort of nondystrophic mice at 2 months of age. […] The results were obtained from two separate groups of vehicle and UDCA treated preparations that were assayed using two different 96 well plates. For each plate, the absorbance for each sample was normalized to the average absorbance determined for the vehicle-treated preparations on that plate. […] Millman et al., 2007. N is the number of mice and preparations in each condition. Shown are the means and standard errors. […] indicate p<0.05 and p<0.01, respectively, between vehicle and UDCA treated preparations. […]

IκB-α and phospho-IκB-α = test: Western blot of phospho-IκB-α and IκB-α in costal diaphragm after proteasomal inhibition with MG132; assay type: in vivo, nondystrophic and mdx mice
Procedure: The influence of the proteasomal inhibitor MG132 on the cytosolic expression of IκB-α and Pi-IκB-α was determined by administering 5 month nondystrophic and mdx mice MG132 (1 mg/kg, intraperitoneal) or vehicle (DMSO) in vivo 2 h prior to euthanization and isolation of the diaphragm. The individual intact costal diaphragms from the MG132 group were then exposed to MG132 ([…] in HEPES Ringer) in vitro for another 2 h while the costal diaphragms from the vehicle group were exposed to HEPES Ringer and vehicle. This procedure of combining in vivo and in vitro exposure to MG was used to maximize inhibition of proteasomal degradation and facilitate the cytosolic accumulation of Pi-IκB-α and IκB-α in the MG132 treated preparations. […]
Cytosolic and nuclear extracts were obtained by homogenizing individual muscles at a concentration of 1 mg wet weight per 18 μl of low salt lysis buffer (LSLB: 10 mM HEPES, 10 mM KCl, 1.5 mM MgCl2, 0.1 mM EDTA, 0.1 mM EGTA, 1 mM dithiothreitol, 1.0 mg/ml benzamidine, 0.5 mM phenylmethylsulfonyl fluoride, 4.0 μl/ml protease inhibitor cocktail Sigma #8340, 10 μl/ml phosphatase inhibitor Sigma #P2850, pH 7.9. See Kumar et al. (2003); Carlson et al. (2005)). […] Pellets were subsequently washed twice (50 μl of LSLB) and resuspended in ice-cold high-salt lysis buffer (HSLB: 20 mM HEPES (pH 7.9), 420 mM NaCl, 1 mM EDTA, 1 mM EGTA, 25% glycerol, 1 mM dithiothreitol, 0.5 mM phenylmethylsulfonyl fluoride, 1.0 mg/ml benzamidine, 4 μl/ml protease inhibitor cocktail, 10 μl/ml phosphate inhibitor; 4 μl/mg wet […] and centrifuged (13,000 rpm, 6 min, 4° C.). The supernatant (nuclear extract) was stored at −80° C. Protein concentration was determined using the Bradford assay (Bio-Rad 500-0006) in a standard 96 well plate.
Muscle proteins and immunoprecipitates (20 μg) were separated by SDS-PAGE under reducing conditions and transferred to PVDF membranes (Bio-Rad). […] Equal loading of proteins for cytosolic and whole cell extracts was evaluated by developing a blot for GAPDH. […]

[1] = UDCA 30 days from 1 month of age
[2] = UDCA 30 days, (UDCA-vehicle)/(nondystrophic-vehicle mdx)

C[C@H](CCC(=O)O)[C@H]1CC[C@H]2[C@@H]3[C@@H](O)C[C@@H]4C[C@H](O)CC[C@]4(C)[C@H]3CC[C@]12C [UDCA, ursodeoxycholic acid]
increase in WBT5 above vehicle-treated (mdx mice; [1]): about 21% | increase in WBT10 above vehicle-treated (mdx mice; [1]): about 21% | recovery of the dystrophic deficit in WBT5 (mdx mice; [2]): 27% | recovery of the dystrophic deficit in WBT10 (mdx mice; [2]): 24% | recovery towards values in mature nondystrophic preparations (nuclear p65 activation; 30 day UDCA treatment): 42% | reduction in nuclear p65 activation (nuclear p65 activation; 30 day UDCA treatment, p<0.05): 34% | mean absorbance relative to vehicle-treated preparations (nuclear p65 activation; [1]): approximately 66%

C[C@H](CCC(=O)NCCS(=O)(=O)O)[C@H]1CC[C@H]2[C@@H]3[C@@H](O)C[C@@H]4C[C@H](O)CC[C@]4(C)[C@H]3CC[C@]12C [TUDCA, tauroursodeoxycholic acid]
effectiveness compared with UDCA (mdx mice; daily ip 30 days in 30 day-old mdx mice, TUDCA 6 mg/ml, N=4): No differences

CC(C)C[C@@H](C=O)NC(=O)[C@H](CC(C)C)NC(=O)[C@H](CC(C)C)NC(=O)OCc1ccccc1 [MG132, Z-leu-leu-leu-al] (Cbz-Leu-Leu-Leu-aldehyde)
increase in proportion of phosphorylated IκB-α (IκB-α and phospho-IκB-α; mdx diaphragm cytosolic extracts, not significant): 1.3 fold | expression of cytosolic IκB-α (IκB-α and phospho-IκB-α; nondystrophic and mdx preparations): not significantly increased | proportion of phosphorylated IκB-α (IκB-α and phospho-IκB-α; nondystrophic diaphragm, cytosol and whole cell extracts, MG132 1 mg/kg ip 2 h then 50 mM in vitro 2 h, p<0.05): doubling
